Paper PMC3097170 (The Journal of pharmacology and experimental therapeutics, 2011)
Several values for one entry are separate records, joined by “and”; a condition that tells them apart may be missing. Identical values can stand only once. Counter-ions that a name gives are not always drawn. Like-named read-outs stand apart in the source and are kept apart here.

Columns and labels:
DOR [1] = target: T1, DOR (Mus musculus, UniProt P32300)
MOR homomers = MOR homomers (Mus musculus, UniProt P42866); format: cell-based, murine; details: DOR/MOR co-expressing cells
Chain of MOR homomers (P42866 whole entry): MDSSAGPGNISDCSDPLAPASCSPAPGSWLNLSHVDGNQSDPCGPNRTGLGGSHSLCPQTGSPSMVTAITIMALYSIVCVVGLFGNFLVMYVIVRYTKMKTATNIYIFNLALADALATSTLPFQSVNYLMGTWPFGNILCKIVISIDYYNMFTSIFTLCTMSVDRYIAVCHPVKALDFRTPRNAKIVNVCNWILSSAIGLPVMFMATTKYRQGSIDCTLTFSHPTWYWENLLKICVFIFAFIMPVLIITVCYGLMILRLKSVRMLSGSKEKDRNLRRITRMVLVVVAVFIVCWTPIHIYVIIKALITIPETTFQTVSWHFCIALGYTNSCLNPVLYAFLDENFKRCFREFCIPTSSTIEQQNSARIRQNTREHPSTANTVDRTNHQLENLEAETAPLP

MOR [2] = details: cited from earlier work
DOR/MOR heteromers = DOR/MOR heteromers (Mus musculus, UniProt P32300+P42866); format: cell-based, murine
Chain of DOR/MOR heteromers (P42866 whole entry): as above
Chain of DOR/MOR heteromers (P32300 whole entry): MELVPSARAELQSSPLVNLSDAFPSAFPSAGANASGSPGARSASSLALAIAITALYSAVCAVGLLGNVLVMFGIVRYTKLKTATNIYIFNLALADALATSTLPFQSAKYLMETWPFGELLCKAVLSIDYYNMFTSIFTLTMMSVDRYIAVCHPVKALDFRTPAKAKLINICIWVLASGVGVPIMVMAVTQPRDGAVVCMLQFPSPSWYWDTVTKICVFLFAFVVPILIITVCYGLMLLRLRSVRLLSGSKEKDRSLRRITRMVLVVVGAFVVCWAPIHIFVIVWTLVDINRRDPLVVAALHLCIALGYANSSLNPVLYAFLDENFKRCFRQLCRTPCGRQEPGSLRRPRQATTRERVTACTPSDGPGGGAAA

DOR/MOR [3] = target: T2, DOR/MOR (Mus musculus, UniProt P32300+P42866)
T2 sequence (P42866 whole entry): as the sequence (P42866 whole entry) above
T2 sequence (P32300 whole entry): as the sequence (P32300 whole entry) above

DOR [4] = target: T1, DOR; assay: cell-based; details: Log IC50
MOR [5] = target: T3, MOR (Mus musculus, UniProt P42866)
T3 sequence (P42866 whole entry): as the sequence (P42866 whole entry) above

DOR [6] = details: cited from earlier work
DOR [7] = target: T1, DOR; remark: listed apart in the source
MOR [8] = target: T3, MOR; remark: listed apart in the source
DOR/MOR [9] = target: T2, DOR/MOR; assay: cell-based
DOR homomers = DOR homomers (Mus musculus, UniProt P32300); format: cell-based, murine
Chain of DOR homomers (P32300 whole entry): as the sequence (P32300 whole entry) above

T1 sequence (P32300 whole entry): as above

Oc1ccc2c3c1O[C@H]1c4oc5ccccc5c4C[C@@]4(O)[C@@H](C2)N(CC2CC2)CC[C@]314 [NTB, naltriben mesylate]
inhibition of DOR endocytosis in response to DPDPE (DOR [1]): did block endocytosis | inhibition of methadone- and DAMGO-induced endocytosis of MOR homomers (MOR homomers; NTB 0.05 μM to 1 μM, 20 minutes): inhibited by the highest concentration | Ki (MOR [2]; read-out: Ki for MOR, ref Raynor et al., 1994, Kim et al., 2001): 12 nM | inhibition of methadone- and DAMGO-induced endocytosis of DOR/MOR heteromers (DOR/MOR heteromers): significantly inhibited | % of maximal inhibition (DOR/MOR [3]): 34 ±7 ^### % and 31 ± 5 % | block of DPDPE signaling (DOR/MOR [3]): effectively blocked signaling | IC50 (DOR [4]): 158 nM and 126 nM | inhibition of DAMGO-mediated signaling (MOR [5]): 52 ± 4% | inhibition of methadone-mediated signaling (MOR [5]): 63 ± 10% | fold higher affinity for DOR over MOR (DOR [6]; DOR over MOR, ref Raynor et al., 1994, Kim et al., 2001): > 100 fold | Ki (DOR [6]; read-out: Ki for DOR, ref Raynor et al., 1994, Kim et al., 2001): 0.013 nM | % of maximal inhibition (DOR [7]): 87 ± 2% and 87 ± 12% | block of DPDPE signaling (DOR [7]): effectively blocked signaling | inhibition of MOR endocytosis in cells expressing only MOR (MOR [8]): did not block endocytosis | IC50 (DOR/MOR [9]): 251 nM

C[C@@H](NC(=O)[C@@H](N)Cc1ccc(O)cc1)C(=O)NCC(=O)N(C)[C@@H](Cc1ccccc1)C(=O)NCCO [DAMGO, [D-Ala2, NMe-Phe4, Gly-ol5]-enkephalin]
agonist-induced endocytosis of DOR (DOR [1]): not endocytosed | agonist-induced endocytosis of MOR homomers (MOR homomers; 1 μM, 30 minutes): promoted endocytosis | agonist-induced endocytosis of DOR/MOR heteromers (DOR/MOR heteromers): promoted endocytosis | Emax (RFU) (DOR/MOR [3]): 956 ± 56 RFU | Emax (RFU) (MOR [5]): 735 ± 51 RFU | Emax (RFU) (DOR [7]): 582 ± 55 RFU | agonist-induced endocytosis of MOR (MOR [8]; 1 μM agonist, 30 minutes, cells expressing MOR alone): endocytosed | agonist-induced endocytosis of DOR homomers (DOR homomers): but not DOR homomers

Oc1ccc2c3c1O[C@H]1c4[nH]c5ccccc5c4C[C@@]4(O)[C@@H](C2)N(CC2CC2)CC[C@]314 [NTI, Naltrindole hydrochloride]
Ki (MOR [2]; read-out: Ki for MOR, reference not given): 64 nM | inhibition of methadone- and DAMGO-induced endocytosis of DOR/MOR heteromers (DOR/MOR heteromers): significantly and selectively inhibited | % of maximal inhibition (DOR/MOR [3]): 79 ± 6% and 48 ± 6% | Log IC50 (DOR/MOR [3]): −6.9 ± 0.1 | IC50 (DOR [4]): 63.1 nM and 251 nM | Ki (DOR [6]; read-out: Ki for DOR, reference not given): 0.02 nM | % of maximal inhibition (DOR [7]): 81 ± 3% and 94 ± 1% | IC50 (DOR/MOR [9]): 126 nM
